These results are taken from patent publication US20130280392A1, “PROCESS FOR CONTROLLING MICROORGANISMS IN BEVERAGE PRODUCTS” (DeLaval Holding AB, priority 2011, published 2013).

Series [1] relates to Alicyclobacillus acidoterrestris ATCC 49025. The series is described as follows: Germicidal efficacy of PAA and chlorine dioxide in dilute nutrient solution, apple juice and carrot juice, MPN viability count. In kind it is cell-based. As to conditions: for LR: 22° C., 10 minutes contact, inoculum 1.40×10^7 CFU/ml; for reduction in the bacteria: all treated samples of Table 3 (5 and 10 ppm; nutrient solution, apple juice, carrot juice). As for the experimental part:
In this experiment, the germicidal efficacy of various concentrations of PAA and chlorine dioxide (by dilution of CDG Solution 3000™, CDG Environmental LLC) at 22° C. after 10 minutes of contact time was determined in a dilute nutrient solution (Tryptone pancreatic digest of casein 1.0 g/L and NaCl 8.5 g/L), apple juice, and carrot juice. Alicyclobacillus acidoterrestris ATCC 49025 was used as the inoculum at a concentration of 1.40×10^7 CFU/ml. After the subscribed contact time, the PAA was neutralized with D/E broth and chlorine dioxide with a peroxide neutralizer, and a viability count for each of the juices was performed using the most probable number technique (MPN). The results are shown in Table 3, and graphically in FIG. 5.

Series [2] is described as follows: Chlorine dioxide demand of apple and carrot juice (HACH DPD Method #10126). The following applies: 22° C., 10 minutes. Type of series: physicochemical. As to the method: In this experiment, apple juice and carrot juice were exposed to pure and stable chlorine dioxide (CDG Solution 3000™, CDG Environmental, LLC) in order to determine their respective chlorine dioxide demands, as determined by HACH DPD Method for Chlorine dioxide (Method #10126). The juice samples were exposed to the chlorine dioxide under room temperature conditions (22° C.), and then the residual concentrations determined 10 minutes after exposure. It can be seen that the chlorine dioxide demands were relatively high.

The nature of series [3]: Degradation of PAA in juices over time, residual PAA by titration with 0.1N sodium thiosulfate. Type of series: physicochemical. As to conditions: for PAA concentration (below detectable limit): after 10 min at 195° F. (90.5° C.); for half-life at 100 ppm: room temperature. As for the experimental part:
The half life of PAA decreases with increasing temperature. The half life of 100 ppm solution of PAA in carrot juice (Brix=8.8) at room temperature is less than 20 min. Similarly, the half life of a 100 ppm solution of PAA in apple juice (Brix=11.4) at room temperature is less than 30 min. After 10 min at 195° F. (90.5° C.), the PAA concentration of a 20 ppm solution of PAA in either carrot (Brix=8.8) or apple juice (Brix=11.4) is below the detectable limit of 0.89 ppm by titration with 0.1N sodium thiosulfate. Thus, when the juice is pasteurized and sent to an evaporator for concentration, any remaining PAA in solution would be converted to acetic acid, water, and oxygen, thereby leaving no or substantially no PAA remaining in the final juice product 32. Briefly, during the titration process, any oxidizing species present in the sample converts a solution of potassium iodide to iodine in the presence of ammonium paramolybdate and phosphoric acid. Subsequently, a starch solution is added to form a deep blue color upon binding iodine. The PAA concentration can be calculated based on the volume of titrant needed to revert the deep blue color.
In this experiment, several juices were dosed with peracetic acid (PAA) (peroxyacetic acid 5.6%, hydrogen peroxide 26.5%) and kept at a controlled temperature (22° C. or 90° C.) for a given period of time to determine how the PAA would degrade over time. At the end of the given time period, the level of PAA remaining in the juice was measured by titration with 0.1N sodium thiosulfate. It can be seen that the PAA decomposed quite rapidly in the various juices, particularly when exposed to elevated temperatures.

Series [4] deals with Alicyclobacillus acidoterrestris. Nature of the series: Antimicrobial efficacy of PAA in organic apple and carrot juice, MPN viability count. Type of series: cell-based. The following applies: 22° C. As to the method: In this experiment, the antimicrobial efficacy of PAA in organic apple and carrot juice was measured by challenging the juices with 1×10^7 CFU/ml of Alicyclobacillus acidoterrestris, a spore-forming thermophile commonly present in juice operations. Immediately following bacterial challenge, the juice was dosed with different concentrations of PAA and incubated at room temperature (22° C.) for 10 minutes without agitation. After the subscribed contact time, the PAA was neutralized with D/E broth and a viability count for each of the juices was performed using the most probable number technique (MPN).

[5] abbreviates: 5 ppm, dilute nutrient solution.
[6] abbreviates: 10 ppm, dilute nutrient solution.
The mark [7] stands for this setting: apple juice, Brix 11.4, exposed concentration 5 ppm.
Where [8] appears, read: apple juice, Brix 11.4, exposed concentration 10 ppm.
Where [9] appears, read: apple juice, Brix 11.4, exposed concentration 25 ppm.
The mark [10] stands for this setting: apple juice, Brix 11.4, exposed concentration 60 ppm.
Setting [11] is: carrot juice, Brix 8.8, exposed concentration 5 ppm.
The mark [12] stands for this setting: carrot juice, Brix 8.8, exposed concentration 10 ppm.
Where [13] appears, read: carrot juice, Brix 8.8, exposed concentration 25 ppm.
Where [14] appears, read: carrot juice, Brix 8.8, exposed concentration 60 ppm.

Molecules are shown by their SMILES.

On to `[O][Cl+][O-]` [chlorine dioxide], for which the LR was 0.65 in series [1] (5 ppm, apple juice); 1.12 in series [1] (5 ppm, carrot juice); 1.34 in series [1] (setting [5]); 1.18 in series [1] (10 ppm, apple juice); 1.57 in series [1] (10 ppm, carrot juice); 1.24 in series [1] (setting [6]). Also, the “reduction in the bacteria” value in series [1] is listed as around 1 log. The Demand was above 4.95 ppm in series [2] (setting [7]); 9.32 ppm in series [2] (setting [8]); 24.3 ppm in series [2] (setting [9]); 57.8 ppm in series [2] (setting [10]); above 4.95 ppm in series [2] (setting [11]); above 9.95 ppm in series [2] (setting [12]). The Demand in series [2] (setting [13]) is reported as above 24.97 ppm; in series [2] (setting [14]), 59.87 ppm. Moreover, the “Read Concentration” value is listed as below 0.05 ppm in series [2] (setting [7]); 0.68 ppm in series [2] (setting [8]); 0.7 ppm in series [2] (setting [9]); 2.2 ppm in series [2] (setting [10]); below 0.05 ppm in series [2] (setting [11]); below 0.05 ppm in series [2] (setting [12]). Further, the “Read Concentration” value was below 0.05 ppm in series [2] (setting [13]) and 0.13 ppm in series [2] (setting [14]).
In the case of `CC(=O)OO` [PAA, peracetic acid], the LR in series [1] (5 ppm, apple juice) is listed as 4.34; in series [1] (5 ppm, carrot juice) it was 4.18; in series [1] (setting [5]), 4.18; in series [1] (10 ppm, apple juice), 4.48; in series [1] (10 ppm, carrot juice), 4.34; in series [1] (setting [6]), 4.51. Besides, the “reduction in the bacteria” value in series [1] is given as above 4 log; in series [4] (all PAA-treated samples, 1×10^7 CFU/ml challenge, 10 minutes (FIG. 4)), above 4 log. Further, the “PAA concentration (below detectable limit)” value in series [3] (20 ppm PAA in apple juice (Brix=11.4)) and in series [3] (20 ppm PAA in carrot juice (Brix=8.8)) was below 0.89 ppm in each case. Further, the half-life at 100 ppm in series [3] (100 ppm solution of PAA in apple juice (Brix=11.4)) is below 30 min; in series [3] (100 ppm solution of PAA in carrot juice (Brix=8.8)), below 20 min. Also, the PAA read in series [3] (apple juice, Brix 11.4, PAA dosed 20 ppm, 90° C., 10 min, followed by 5 min in ice) is below 0.98 ppm; in series [3] (apple juice, Brix 11.4, PAA dosed 100 ppm, 22° C., 60 min), 19.6 ppm; in series [3] (apple juice, Brix 11.4, PAA dosed 100 ppm, 90° C., 10 min, followed by 5 min in ice) it was 15.7 ppm; in series [3] (carrot juice, Brix 8.8, PAA dosed 20 ppm, 90° C., 10 min, followed by 5 min in ice) it was below 0.98 ppm; in series [3] (carrot juice, Brix 8.8, PAA dosed 100 ppm, 22° C., 60 min) it was 3.92 ppm; in series [3] (carrot juice, Brix 8.8, PAA dosed 100 ppm, 90° C., 10 min, followed by 5 min in ice), 2.94 ppm. In series [4] (PAA dose as low as 0.35 ppm, 10 minutes), the “loss in cell viability” value is “substantial loss in cell viability”.
